Reference: patent US12622892B2, “Methods for treating endometriosis” (THE TEXAS A&M UNIVERSITY SYSTEM, priority 2020, dated 2026)

How the values were obtained:
[1] = biological target: T1, GAL4-NR4A1 (Homo sapiens, UniProt P22736); assay: Luciferase assay, GAL4-NR4A1 chimera/UAS-luc in ESECT-7 cells; type: cell-based; conditions: ESECT-7 cells transfected with GAL4-NR4A1 chimera/UAS-luc; 18 hr treatment; FIG. 2A
T1 construct: GAL4 (fusion partner); expressed in transfected cells; host or cells: ESECT-7 patient-derived endometriotic cells
Experimental: (§1) Luciferase assay: ESECT-7 and ESECT-40 cells were plated on 12-well plates in DMEM/F12 supplemented with 2.5% charcoal-stripped FBS. After overnight attachment and growth, various amounts of DNA [i.e., UASx5-Luc (500 ng), GAL4-NR4A1 (50 ng), NBREx3-Luc (800 ng), NurREx3-Luc (800 ng) and Flag-NR4A1 (80 ng)] were co-transfected into each well using Lipofectamine 2000 reagent (Invitrogen, Carlsbad, CA) according to the manufacturer's protocol. After 6 hr of transfection, cells were treated with plating medium (as above) containing either solvent (DMSO) or indicated concentrations of the compound for 18 hr. Cells were then lysed and cell extracts were used for chemiluminescence quantification of luciferase activity. Luciferase activity values were normalized against corresponding protein concentration values determined by Bradford assay. Both GAL4- and Flag-NR4A1 constructs contain full-length NR4A1 coding sequence and all the plasmids used in this study were previously described.

[2] = biological target: T2, NR4A1 (Homo sapiens, UniProt P22736); assay: Luciferase assay, NR4A1/NBRE-luc in ESECT-7 cells; type: cell-based; conditions: ESECT-7 cells transfected with NR4A1/NBRE-luc; 18 hr treatment; FIG. 2A
T2 construct: expressed in transfected cells; host or cells: ESECT-7 patient-derived endometriotic cells
Experimental: as §1

[3] = test system: ESECT-7 cells; assay: Cell proliferation assay (MTT), ESECT-7; type: cell-based, human; conditions: 24 hr; 5-10 μM DIM-C-pPhOH-3-Cl-5-OCH3, 15-25 μM DIM-C-pPhOH; FIG. 2C
Experimental: (§2) Primary human endometriotic stromal cells from endometriosis patients: Ovarian endometrioma were isolated from endometriosis patients in the proliferative phase following the IRB-approved protocol. Isolated ectopic lesions were digested with collagenase type 3 (300 μg/ml) and DNaseI (40 μg/ml) for 90 min at 37° C., and then tissues were filtered through 150, 100, and 40 μm sieves to isolate endometrial stromal cells. The collected endometrial stromal cells were cultured in DMEM/F12 with 10% FBS plus 1× antibiotic/antimycotic solution and then validated by flow cytometry with a CD90 antibody (a mesenchymal marker). Henceforth, we refer to the stromal cells as ectopic endometrium isolated ovarian endometrioma (ESECT). As the control, primary normal endometrial stromal cells isolated from the biopsy of the eutopic endometrium of normal women (NEM) in the proliferative phase. All cells were incubated at 37° C. in CO2 incubator in an atmosphere of humidified 5% CO2 and 95% air.
(§3) Cell proliferation assay: Patient-derived endometriotic cells ESECT-7 and ESECT-40 were seeded into a 96-well plate, and the cells were then treated for 24 hr with either DMSO or different concentrations of DIM-C-pPhOH and DIM-C-pPhOH-3-Cl-5-OCH3. […] Dimethyl sulfoxide (DMSO) was added and incubated at […] for 10 min, and absorbance was measured at 570 nm.

[4] = test system: NEM cells; assay: Cell growth, normal endometrial NEM cells; type: cell-based, human; conditions: 24 hr; 15-25 μM DIM-C-pPhOH, 5-10 μM DIM-C-pPhOH-3-Cl-5-OCH3; vs DMSO control; FIG. 4A
Experimental: as §2, §3

[5] = test system: ESECT-40 cells; assay: Annexin V staining, ESECT-40; type: cell-based, human; conditions: 10 μM DIM-C-pPhOH-3-Cl-5-OCH3, 25 μM DIM-C-pPhOH, FIG. 3B
Experimental: (§4) Annexin V staining: ESECT-7 and ESECT-40 cells were seeded in Nunc chambered cover glass followed by various drug treatments. The cells were then washed with ice-cold PBS, and 5 μL Alexa Fluor® 488 Annexin V with 100 μg/mL PI (as per the manufacturer's instructions) were added to the cells and incubated for 15 min, and the cells were observed using a Zeiss confocal fluorescence microscope.

[6] = test system: IHEECs; assay: Expression of fibrosis markers in IHEECs; type: cell-based, human; conditions: 24 hours, vs control, FIG. 6B
[7] = test system: Ishikawa cells; assay: Expression of fibrosis markers in Ishikawa cells; type: cell-based; conditions: 24 hours, FIG. 6D
[8] = test system: ESECT-40 cells; assay: Cell proliferation assay (MTT), ESECT-40; type: cell-based, human; conditions: 24 hr; 5-10 μM DIM-C-pPhOH-3-Cl-5-OCH3, 15-25 μM DIM-C-pPhOH; FIG. 2C
Experimental: as §2, §3

[9] = test system: ESECT-7 cells; assay: Annexin V staining, ESECT-7; type: cell-based, human; conditions: 10 μM DIM-C-pPhOH-3-Cl-5-OCH3, 25 μM DIM-C-pPhOH, FIG. 3A
Experimental: as §4

[10] = test system: ESECT-7 cells; assay: Quantitative real-time PCR of fibrosis markers, ESECT-7; type: cell-based, human; conditions: 24 hours, 20-25 μM DIM-C-pPhOH, 5-10 μM DIM-C-pPhOH-3-Cl-5-OCH3, vs DMSO control, FIG. 5C
Experimental: Quantitative real-time PCR: Total RNA was isolated from cultured cells according to the manufacturer's instructions (Zymo Research, Irvine, CA). The concentration and purity of the RNA samples were determined using a nanodrop spectrophotometer. Total RNA was reverse transcribed using iTaq Universal SYBR Green One-Step Kit (Thermo Fisher Scientific, Grand Island, NY) using the manufacturer's protocol with the CFX384 real-time PCR System (Bio-Rad). The comparative cycle threshold method was used for relative quantitation of samples. Values for each gene were normalized to expression levels of TATA-binding protein. The sequences of the primers used for real-time PCR included the following: α-SMA, 5′-GGCCGAGATCTCACTGACTAC-3′ (sense, SEQ ID NO. 13) and 5′-TTC ATG GAT GCC AGC AGA-3′ (antisense, SEQ ID NO. 14); COL1A1, 5′-CAG CCG CTT CAC CTA CAG C-3′ (sense, SEQ ID NO. 15) and 5′-TTTTGTATTCAATCAGTGTCTTGCC-3′ (antisense, SEQ ID NO. 16); CTGF, 5′-TTGGCCCAGACCCAACTATG-3′(sense, SEQ ID NO. 17) and 5′-CAGGAGGCGTTGTCATTGGT-3′ (antisense, SEQ ID NO. 18); FN, 5′-GGG AGC CTC GAA GAG C-3′ (sense 19) and 5′-AACAAGTACAAACCAACGCA-3′ (antisense, SEQ ID NO. 20) and TATA-binding protein, 5′-GATCAGAACAACAGCCTGCC-3′ (sense, SEQ ID NO. 21) and 5′-TTCTGAATAGGCTGTGGGGT-3′ […].

T2 sequence (P22736 whole entry, species assumed): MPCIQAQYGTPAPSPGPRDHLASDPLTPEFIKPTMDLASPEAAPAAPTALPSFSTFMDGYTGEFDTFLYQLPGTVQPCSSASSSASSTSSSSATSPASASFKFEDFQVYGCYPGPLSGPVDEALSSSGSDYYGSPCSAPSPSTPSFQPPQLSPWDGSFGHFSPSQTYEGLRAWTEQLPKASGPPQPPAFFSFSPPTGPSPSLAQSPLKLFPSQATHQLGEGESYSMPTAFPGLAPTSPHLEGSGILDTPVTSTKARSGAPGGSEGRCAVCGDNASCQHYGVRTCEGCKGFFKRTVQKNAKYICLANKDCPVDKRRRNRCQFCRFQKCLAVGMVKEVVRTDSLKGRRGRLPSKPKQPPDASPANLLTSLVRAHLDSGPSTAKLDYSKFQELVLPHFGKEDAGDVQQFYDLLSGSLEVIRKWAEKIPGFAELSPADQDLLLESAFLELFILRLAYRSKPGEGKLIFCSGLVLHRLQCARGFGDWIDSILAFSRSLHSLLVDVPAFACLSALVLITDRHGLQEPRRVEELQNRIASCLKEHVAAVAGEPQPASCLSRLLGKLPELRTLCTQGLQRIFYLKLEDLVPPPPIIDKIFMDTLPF
T1 sequence (P22736 with tags, fused parts or gaps): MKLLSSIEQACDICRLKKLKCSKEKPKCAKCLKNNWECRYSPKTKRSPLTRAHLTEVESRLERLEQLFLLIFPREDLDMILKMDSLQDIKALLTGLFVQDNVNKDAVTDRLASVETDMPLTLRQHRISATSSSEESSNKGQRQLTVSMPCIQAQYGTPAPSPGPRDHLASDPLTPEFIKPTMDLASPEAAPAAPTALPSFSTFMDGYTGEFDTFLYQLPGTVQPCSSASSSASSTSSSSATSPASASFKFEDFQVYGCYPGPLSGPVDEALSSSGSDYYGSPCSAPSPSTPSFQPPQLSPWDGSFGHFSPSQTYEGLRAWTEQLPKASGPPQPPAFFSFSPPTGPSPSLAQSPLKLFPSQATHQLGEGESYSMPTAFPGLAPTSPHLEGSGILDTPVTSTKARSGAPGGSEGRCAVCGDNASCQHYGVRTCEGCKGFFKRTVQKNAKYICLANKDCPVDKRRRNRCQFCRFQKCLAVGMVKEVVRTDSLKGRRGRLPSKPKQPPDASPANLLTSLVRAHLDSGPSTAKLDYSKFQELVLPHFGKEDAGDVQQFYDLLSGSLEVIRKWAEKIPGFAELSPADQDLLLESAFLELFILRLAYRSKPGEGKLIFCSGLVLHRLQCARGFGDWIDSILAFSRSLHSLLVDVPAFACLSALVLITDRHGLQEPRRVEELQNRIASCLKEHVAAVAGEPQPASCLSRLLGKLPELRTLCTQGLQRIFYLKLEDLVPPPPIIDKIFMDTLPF

## COc1cc(C(c2c[nH]c3ccccc23)c2c[nH]c3ccccc23)cc(Cl)c1O [DIM-C-pPhOH-3-Cl-5-OCH3]
[1]
  intrinsic transcriptional activity of GAL4-NR4A1: inhibited the intrinsic transcriptional activity
[2]
  intrinsic transcriptional activity of NR4A1: inhibited the intrinsic transcriptional activity
[3]
  growth of ESECT-7 cells: effectively inhibited the growth
[4]
  growth of normal endometrial NEM cells: did not suppress the growth
[5]
  Annexin V staining (apoptosis): significantly induced
[6]
  expression of fibrosis markers (α-SMA, COL1A1, FN, CTGF): decreased expression of fibrosis markers
[7]
  expression of fibrosis markers (α-SMA, COL1A1, FN, CTGF): decreased expression of fibrosis markers
[8]
  growth of ESECT-40 cells: effectively inhibited the growth
[9]
  Annexin V staining (apoptosis): significantly induced
[10]
  mRNA levels of fibrosis markers (FN, Col1A1, CTGF): decreased mRNA levels
